Results reported in patent publication US20200331950A1, “SGLTS INHIBITOR AND APPLICATION THEREOF” (SHANDONG DANHONG PHARMACEUTICAL CO., LTD., priority 2018, published 2020).
Marks after values point to notes of the source that are not given here.

What was measured:
SD rats [1] = test: Oral glucose tolerance test (OGTT) in rats, first time; type: in vivo; settings: first study, male SD rats, 10 mg/kg single intragastric administration; for OGTT blood glucose level AUC0-2 hr: glucose 2 g/kg; for Urine glucose level / Urine volume: urine 0-24 h
Description: Experimental Example 3. Study on In Vivo Efficacy of Oral Glucose Tolerance Test (OGTT) in Rats: Study on the In Vivo Efficacy of Oral Glucose Tolerance Test (OGTT) in Rats for the First Time
(§1) The experimental animals were allowed to adapt to the environment in the animal room for one week after they arrived.
(§2) The animals fasted in the metabolic cage for 18 hours, then were given drugs or vehicle (2 ml/kg) according to the above table, and subsequently were immediately given 50% glucose solution (2 g/kg, 4 ml/kg).
(§3) 2 hours after the administration of glucose solution, feed intake was restored. Blood samples were taken at 0 min, 15 min, 30 min, 45 min, 60 min and 120 min respectively, and urine samples were collected at 0-24 h to test blood glucose, urine glucose (mg/200 g) and urine volume respectively.
(§4) All values are represented as averages. Statistical analysis was performed using Graphpad Prism 6 one-way analysis of variance and Tukey's multiple comparison test. P value of less than 0.05 is considered statistically significant.

db/db mice [2] = test: Oral glucose tolerance test (OGTT) at week 8 in diabetic db/db mice; type: in vivo; settings: 5 mg/kg weeks 1-4, 10 mg/kg weeks 5-8, once daily, fasted 6 hours, glucose 2 g/kg, mean±S.E.M.
Description: (§5) Experimental Example 4: Study on the In Vivo Pharmacodynamics in Diabetic Db/Db Mice
(§6) During the experiment, the animals were administrated with the corresponding vehicles or drugs according to the group with an administration time of 16:00 and an administration period of 8 weeks.
(§7) The dose was 5 mg/kg from week 1 to week 4; and the dose was 10 mg/kg from week 5 to week 8.
At the end of the experiment (i.e. the last 3 days of administration), the animals fasted for 6 hours, then were given a single administration of glucose aqueous solution at a dose of 2 g/kg. The time of the glucose administration was recorded as 0 min. Blood glucose levels of the animals were detected at 0 min before the glucose administration, and 15 min, 30 min, 90 min and 120 min after the glucose administration, respectively. The glucose tolerance curve was drawn according to the data of blood glucose levels vs time, and the area under the curve (AUC) was calculated. The administration was given at 16:00.
(§8) All of the data were entered into an Excel document and expressed in the form of mean±S.E.M. The differences between groups were compared using graphpad Prism 6 software and one-way analysis of variance (ANOVA). P value of less than 0.05 is considered a significant difference.

db/db mice [3] = test: Glycosylated hemoglobin (HbA1c) in diabetic db/db mice; type: in vivo; settings: for HbA1c (%): fasted 6 hours; for Rate of Decline of HbA1c (%): vs. vehicle control group
Description: as §5, §6, §7
At weeks 4 and 8 of the experiment, the animals fasted for 6 hours, and blood samples were collected to measure glycosylated hemoglobin.
as §8

[4] = In vivo pharmacokinetics in Beagle dogs; settings: male Beagle dogs
Description: Study on the In Vivo Pharmacokinetics in Beagle Dogs
The purpose of the experiment: Male beagle (Beagle) dogs were used as test animals and were given a single administration to determine the plasma concentration of the compound and evaluate the pharmacokinetic behavior.
Experimental method: Six male Beagle dogs were divided into 2 groups, with 3 dogs in an intravenous injection group and 3 dogs in an oral administration group. In the intravenous injection group, the test compound was mixed with an appropriate amount of vehicle (20% polyethylene glycol-400 (PEG400)/10% polyethylene glycol-15 hydroxy stearate (available from solutol)/70% water), then vortexed and sonicated to prepare 1 mg/mL clear solution, which was filtered by microporous membrane. In the oral administration group, 20% polyethylene glycol-400 (PEG400)/10% polyethylene glycol-15 hydroxy stearate (available from solutol)/70% water was used as a vehicle and mixed with the test compound, then vortexed and sonicated to prepare 1 mg/mL clear solution. The dogs were given intravenous administration at a dose of 1 mg/kg or oral administration at a dose of 2 mg/kg. Whole blood was collected at a certain period of time to prepare the plasma. The drug concentration of the plasma was analyzed by LC-MS/MS method, and the pharmacokinetic parameters were calculated using Phoenix WinNonlin software (Pharsight Company, USA).

SD rats [5] = test: Oral glucose tolerance test (OGTT) in rats, second time; type: in vivo; settings: second study, male SD rats, 10 mg/kg single intragastric administration
Description: Study on the In Vivo Efficacy of Oral Glucose Tolerance Test (OGTT) in Rats for the Second Time:
as §1, §2, §3, §4

[6] = Week 4, 5 mg/kg intragastric once daily
[7] = Week 8, 5 mg/kg weeks 1-4, 10 mg/kg weeks 5-8, once daily

Row | clearance ([4]; dog, plasma, intravenous 1 mg/kg or oral 2 mg/kg, read-out: Cl (clearance rate)) | half-life ([4]; dog, plasma, intravenous 1 mg/kg or oral 2 mg/kg, read-out: T1/2 (half-life) (converted)) | Vd ([4]; dog, plasma, intravenous 1 mg/kg or oral 2 mg/kg, read-out: Vdss (distribution volume)) | bioavailability ([4]; dog, plasma, intravenous 1 mg/kg, oral 2 mg/kg, read-out: F % (oral bioavailability)) | Cmax ([4]; dog, single administration, intravenous 1 mg/kg or oral 2 mg/kg, plasma) | Oral DNAUC (AUCPO/Dose) ([4]; oral 2 mg/kg) | SMILES | OGTT blood glucose level AUC0-2 hr (SD rats [1]) | Urine glucose level (SD rats [1]) | Urine volume (SD rats [1]) | OGTT blood glucose level AUC0-2 hr (db/db mice [2]) | HbA1c (%) (db/db mice [3]; [6]) | Rate of Decline of HbA1c (%) (db/db mice [3]; [6]) | HbA1c (%) (db/db mice [3]; [7]) | Rate of Decline of HbA1c (%) (db/db mice [3]; [7]) | OGTT blood glucose level AUC0-2 hr (SD rats [5]; glucose 2 g/kg) | Urine glucose level (SD rats [5]; urine 0-24 h) | Urine volume (SD rats [5]; urine 0-24 h)
1 | – | – | – | – | – | – | CS[C@H]1O[C@@H](c2ccc(C)c(Cc3ccc(C4=CCC(F)(F)CC4)cc3)c2)[C@H](O)[C@@H](O)[C@@H]1O [WXD003] | 797 mmol/L/min | 1636.4**** mg/200 g, BW | 24.58 mL/200 gBW | 2810 ± 155 mmol/L/min | 5.7*** % | −32% | 5.9**** % | −39% | – | – | –
2 | – | – | – | – | – | – | CS[C@H]1OC(c2ccc(Cl)c(Cc3ccc(C4=CCC(F)(F)CC4)cc3)c2)[C@H](O)[C@@H](O)[C@@H]1O (stereo partly shown) [WXD001] | 832 mmol/L/min | 2181.4**** mg/200 g, BW | 37.58**** mL/200 gBW | – | – | – | – | – | – | – | –
3 | 6.9 mL/min/kg | 2.4 h | 1.49 L/kg | 82% | 1290 nM | 4051 nM · h/mpk | CCc1ccc([C@@H]2O[C@H](SC)[C@@H](O)[C@H](O)[C@H]2O)cc1Cc1ccc(C2=CCC(F)(F)CC2)cc1 [WXD010] | – | – | – | 2120 ± 99.2 mmol/L/min | 5.8*** % | −31% | 5.1**** % | −47% | 720 mmol/L/min | 2118.7**** mg/200 g, BW | 20.0**** mL/200 g, BW
